Measurements as given in PMC7569882, “A Probeless Capacitive Biosensor for Direct Detection of Amyloid Beta 1-42 in Human Serum Based on an Interdigitated Chain-Shaped Electrode” (Micromachines, 2020).

molecular target: aβ 1-42 peptide; assay: not given; conditions: Fluorescent; ref [43]; cited from earlier work
Source text: Table 2 Dissociation constants Kd of the interaction between aβ 1-42 peptide and various binding partners. | column: Kd (nM)

Row | Molecule | Kd [nM]
1 | CN(C)c1ccc(/C=C/C2=CC(/C=C/c3ccc(N(C)C)cc3)=[O+][B-](F)(F)O2)cc1 [CRANAD-2, (T-4)-((1E,6E)-1,7-bis(4-(dimethylamino)phenyl)-1,6-heptadiene-3,5-dionato-kO^3,kO^5)difluoro-boron] | 38.7
2 | CN(C)c1ccc(/C=C/C=C/C=C(C#N)C#N)cc1 [DANIR-2c] | 26.9
3 | N#CC(C#N)=Cc1ccc(-c2ccc(-c3ccc(O)cc3)s2)s1 [NIAD-4, {(50-(p-Hydroxyphenyl)-2,20-bithienyl-5-yl)-methylidene}-propanedinitrile] | 10

tested on: anti-aβ/SAM/ICE biosensor (anti-aβ antibody MOAB-2); assay: Selectivity of biosensor: change in capacitance ΔC with different analytes; type: binding; conditions: 1 Hz, in HS; TNF-α 0.5 ng mL^−1, insulin 10^3 ng mL^−1, CRP 10^5 ng mL^−1; n = 3
Procedure: Electrical impedance spectroscopy (EIS) (EC-Lab, Sp-200, Bio-Logic Science Instruments, Seyssinet-Pariset, France) was used for the recording of impedance and capacitance of the biosensor in PBS (pH 7.4). The EIS output signal is measured by applying an input voltage of 10 mV in a frequency range from 100 mHz–100 Hz, to the working and reference electrode. To explore the clinical application, the capacitive anti-aβ/SAM/ICE biosensor was employed for the direct detection of aβ 1-42 peptide in HS. Firstly, the pure HS was diluted in 1× PBS buffer at the ratio (1:1000), to avoid matrix effects in the measurement. Next, 1 μg mL^−1 of aβ 1-42 in pure HS was made, and then differential concentrations of aβ from 10^−3 to 10^3 ng mL^−1 were diluted using HS (1:1000). Various concentrations of aβ (10^−3–10^3 ng mL^−1) were incubated in the HS (1:1000) with the biosensor for 20 min, and the capacitance was measured. To verify the selectivity of the anti-aβ/SAM/ICE biosensor, the effects of tumor necrosis factor-alpha (TNF-α, 0.5 ng mL^−1), insulin (10^3 ng mL^−1), and C-reactive protein (CRP, 10^5 ng mL^−1) in HS were characterized using the change in capacitance ΔC value at 1 Hz frequency (Figure 7a). […] Moreover, the fabricated aβ/SAM/ICE biosensors were kept in the refrigerator at 4 °C for storage. Then, the capacitance of the biosensor at 1 Hz was recorded in PBS at 24 °C of room temperature, on the 1st, 2nd, 3rd, 7th, and 14th day after taking it out to check the stability of the biosensor, as shown in Figure 7b.

Row | Molecule | interference with aβ detection | ΔC response (change in capacitance)
4 | TNF-α | no significant interference | did not change much compared to the ΔC response for aβ
5 | insulin: insulin, interferent in selectivity test | no significant interference | did not change much compared to the ΔC response for aβ
6 | CRP: C-reactive protein, interferent in selectivity test (protein, UniProt P02741 19-224, looked up) C-reactive protein: QTDMSRKAFVFPKESDTSYVSLKAPLTKPLKAFTVCLHFYTELSSTRGYSIFSYATKRQDNEILIFWSKDIGYSFTVGGSEILFEVPEVTVAPVHICTSWESASGIVEFWVDGKPRVRKSLKKGYTVGAEASIILGQEQDSFGGNFEGSQSLVGDIGNVNMWDFVLSPDEINTIYLGGPFSPNVLNWRALKYEVQGEVFTKPQLWP | no significant interference | did not change much compared to the ΔC response for aβ
